# Measured values taken from patent publication US12653827B2, “Methods of treating indolent systemic mastocytosis” (Telios Pharma Inc., priority 2024, dated 2026).
# Values joined by “and” are separate entries in the source; they are usually repeats but may differ in a detail not shown here. Equal values may be shown once.
# Columns and labels:
# [1] = tested on: IL-8, MCP-1, MIP-1a, IL-13 and IL-10; assay: Antigen-induced cytokine production in ISM-like and healthy mast cell conditions; format: cell-based, human; conditions: ISM-like mast cells; treated two hours, antigen four hours
# Experimental: Human mast cells were derived from bone marrow CD34+ cells from six healthy donors for up to eight weeks by culturing CD34+ cells in StemSpan SFEM II (Stem Cell Technologies) supplemented with stem cell factor (SCF; 100 ng/mL; R&D System), IL-6 (R&D Systems), IL-3 (R&D Systems) and 1% penicillin/streptomycin (P/S; Gibco) for the first 10 days and in StemSpan SFEM II supplemented with SCF and IL-6 and 1% P/S for the remaining time in culture. […] Supernatant was collected and histamine levels were measured using a Histamine ELISA kit (Eagle Biosciences). […] Percent of activated mast cells was calculated as number of activated mast cells over the total number of mast cells.
# Human mast cells were differentiated from bone marrow CD34+ cells from two healthy donors, cultured and sensitized in ISM-like and healthy mast cell conditions as set forth in Example 4, treated with Compound 128 for two hours and stimulated with antigen for four hours. Supernatant was collected and cytokine levels were measured using the BD Cytometric Bead Array (CBA) human soluble protein master buffer kit (Becton Dickinson) and BD CBA human soluble protein flex sets for IL-8, MCP-1, MIP-1a, IL-13 and IL-10 (Becton Dickinson). […]
# [2] = Clinical study in ISM patients, total symptom score (ISM-TSAF, SISM-TSAF); format: in vivo, human; conditions: 100 mg or 150 mg BID
# Experimental: Efficacy of Compound 128 will be evaluated among adult subjects diagnosed with ISM as defined by WHO diagnostic criteria. The subjects have moderate-to-severe symptoms based on minimum mean total symptom scores (TSS) of ISM-TSAF over the 14-day eligibility screening period for assessment of TSS of ISM-TSAF. Minimum baseline TSS of ISM-TSAF for eligibility is >28. Subjects will receive either 50, 75, 100 or 150 mg BID of Compound 128 plus best supportive care. Subject will be treated for twenty-four weeks and will be evaluated at twelve weeks and twenty-four weeks. Evaluation will be based on the 14-day rolling average TSS of ISM-TSAF or SISM-TSAF. The TSS of ISM-TSAF is based on patient reporting on eleven separate symptoms, measuring the severity of a broad range of mastocytosis-related symptoms over the prior 24 hours, based on a score from zero (no symptoms) to ten (worst possible symptoms experienced) scale for a TSS between 0-110. The eleven symptoms to be scored by the subject are fatigue, abdominal pain, diarrhea, skin spots, itching, flushing, brain fog, headache, dizziness and bone pain. The TSS of SISM-TSAF is based on patient reporting on nine separate symptoms based on a score from zero (no symptoms) to ten (worst possible symptoms experienced). The nine symptoms to be scored by the subject are muscle pain, runny nose, nasal congestion, wheezing, shortness of breath, throat itching, heart palpitations, difficulty concentrating, and diarrhea. The first eight items measure the severity of a broad range of mastocytosis-related symptoms over the prior 24 hours. Each of the first eight symptom is assessed on a 0 (None) to 10 (Worst Imaginable) scale for a TSS between 0-80. The 9th item measures incidence of diarrhea over the prior 24 hours. Endpoints will also be based on mean change in TSS of ISM-TSAF or SISM-TSAF based on 14-day average of patient-reported severity of ISM symptoms; mean change in serum tryptase level, KIT D816V VAF, change in best supportive care medications and change in number of anaphylactic episodes.
# Five ISM patients have been treated with Compound 128 at 100 mg or 150 mg BID. At week 12, the TSS of ISM-TSAF is reduced by 28 points compared to the placebo group (FIG. 24), and the TSS of SISM-TSAF is reduced by 22.7 points, compared to the placebo (FIG. 25). In contrast, avapritinib 25 mg QD reduced the TSS of ISM-TSAF by 5.7 points at week 24 (FIG. 23). The average reduction of total symptom score of ISM-TSAF is 55% compared to the baseline while the average reduction of total symptom score of ISM-TSAF is 38% compared to the placebo group (FIG. 28).
# [3] = tested on: IL-8, MCP-1, GM-CSF and IL-13; assay: MRGPRX2-mediated cytokine production in ISM-like mast cells; format: cell-based, human
# Experimental: Human mast cells were differentiated from bone marrow CD34+ cells from four healthy donors and were cultured in the presence of SCF (100 ng/mL) to mimic mast cells in ISM and treated with Compound 128 for two hours prior to stimulation. Mas-related G protein-coupled receptor (MRGPRX2) agonists, Compound 48/80 (C48/80; a product of N-methyl-p-methoxyphenethylamine with formaldehyde) or Substance P (SP) were used to activate the MRGPRX2 pathway. For pBTK test, cells were stimulated with C48/80 (10 μg/mL) for ten minutes at 37° C. and cells were stained. The median fluorescence intensity of phosphorylated BTK was measured. The fold change over unstimulated control for pBTK was calculated. For cytokine test, cells were stimulated with C48/80 (10 μg/mL) or SP (30 μM) for four hours at 37° C. Supernatant was collected and cytokine levels were measured using the BD Cytometric Bead Array (CBA) human soluble protein master buffer kit (Becton Dickinson) and BD CBA human soluble protein flex sets for IL-8, MCP-1, GM-CSF and IL-13 (Becton Dickinson). Cytokine levels were measured and normalized to percent of control, with 0% representing the level of the unstimulated control.
compound,measurement,setting,value
"C=CC(=O)N1CCC(F)(CNc2ncnc(N)c2-c2ccc(Oc3ccccc3)cc2)CC1 [Compound 128, 1-(4-(((6-amino-5-(4-phenoxyphenyl)pyrimidin-4-yl)amino)methyl)-4-fluoropiperidin-1-yl)prop-2-en-1-one]",IgE-mediated cytokine production,[1],inhibited
same,average reduction of total symptom score of ISM-TSAF compared to the placebo group,[2],38%
same,average reduction of total symptom score of ISM-TSAF compared to the baseline,[2]; 12-week treatment,55%
same,reduction of TSS of ISM-TSAF compared to the placebo group,[2]; week 12,28.0 points and 28 points
same,reduction of TSS of SISM-TSAF compared to the placebo,[2]; week 12,22.7 points
same,MRGPRX2-mediated cytokine production,[3]; 0.1 μM,partially inhibited
same,MRGPRX2-mediated cytokine production,[3]; 0.5 and 1 μM,inhibition of cytokine production was increased
same,C48/80-mediated cytokine production,[3]; C48/80 (10 μg/mL) stimulation,partial inhibition
same,MRGPRX2-mediated cytokine production in ISM-like mast cells (figure legend),[3]; FIGS. 15A-C,inhibits
same,SP-mediated cytokine production,[3]; Substance P (30 μM) stimulation,fully inhibited
